Values quoted from earlier work in article PMC10851415 (Biochemistry, 2024).

Tested on: influenza
Conditions: in vivo, po; cited from earlier work

COC(=O)OCOc1c2n(ccc1=O)N([C@@H]1c3ccccc3SCc3c1ccc(F)c3F)[C@@H]1COCCN1C2=O [BXM, Baloxavir marboxil]
reduce fever in an average of: 24 h
